Earlier results, collected in paper PMC5983471 (PLoS ONE, 2018).
Read-outs that look alike come from different tables or passages of the source.

Columns and labels:
[1] = tested on: CYP2C8; parameters: method as in FDA prescribing information; conditions: healthy volunteers; ref FDA prescribing information; cited from earlier work
[2] = tested on: CYP2C19; parameters: method as in FDA prescribing information; conditions: ref FDA prescribing information, cited from earlier work
[3] = tested on: CYP3A4; parameters: method as in FDA prescribing information; conditions: ref FDA prescribing information, cited from earlier work
[4] = parameters: method as in FDA prescribing information; conditions: ref FDA prescribing information, cited from earlier work
[5] = ref FDA prescribing information; cited from earlier work
[6] = tested on: CYP2C9; parameters: method as in FDA prescribing information; conditions: ref FDA prescribing information, cited from earlier work
[7] = tested on: castration-resistant prostate cancer; conditions: ref 59 (S1 Protocol), cited from earlier work
[8] = tested on: CRPC; conditions: cited from earlier work
[9] = tested on: human CYP2C8 and CYP3A4; parameters: method as in FDA prescribing information; conditions: in vitro; ref FDA prescribing information; cited from earlier work
[10] = tested on: CYP3A4; parameters: method as in FDA prescribing information; conditions: healthy volunteers; ref FDA prescribing information; cited from earlier work
[11] = parameters: method as in FDA prescribing information; conditions: healthy volunteers; ref FDA prescribing information; cited from earlier work
[12] = tested on: CRPC; conditions: cited from earlier work; remark: listed apart in the source
[13] = parameters: method as in FDA prescribing information; conditions: single oral 14C-enzalutamide 160 mg; ref FDA prescribing information; cited from earlier work
[14] = tested on: plasma proteins, primarily albumin; parameters: method as in FDA prescribing information; conditions: ref FDA prescribing information; cited from earlier work
[15] = AFFIRM, Enzalutamide (N=800), ref Scher et al, 2012
[16] = PREVAIL, Enzalutamide (N=871), ref Beer et al, 2014

## CNC(=O)c1ccc(N2C(=S)N(c3ccc(C#N)c(C(F)(F)F)c3)C(=O)C2(C)C)cc1F [enzalutamide, 4-(3-[4-cyano-3-(trifluoromethyl)phenyl]-5,5dimethyl-4-oxo-2-sulfanylideneimidazolidin-1-yl)-2-fluoro-N-methylbenzamide]
[1]
  effect of gemfibrozil on composite AUC of enzalutamide plus N-desmethyl enzalutamide: increased
[2]; at steady state
  effect on plasma exposure to omeprazole (CYP2C19 substrate): reduced
[2]; in humans
  CYP2C19 inducer strength: moderate
[3]; at steady state
  effect on plasma exposure to midazolam (CYP3A4 substrate): reduced
[3]; in humans
  CYP3A4 inducer strength: strong
[4]; 160 mg daily oral
  plasma mean Cmax at steady state: 16600 ng/mL
[4]; single oral dose, patients, 29% CV
  mean apparent volume of distribution (V/F): 110 L
[4]; single oral dose, patients
  mean apparent clearance (CL/F): 0.56 L/h
[5]
  solubility in water: practically insoluble
[6]; at steady state
  effect on plasma exposure to warfarin (CYP2C9 substrate): reduced
[6]; in humans
  CYP2C9 inducer strength: moderate
[7]; 30 mg to 600 mg by mouth daily, 78 out of 140 subjects
  PSA response rate (≥50% PSA declines): 56%
[7]; daily dose ≤240 mg
  patients who discontinued treatment for an AE: 1/87
[7]; doses ≥360 mg
  patients who discontinued treatment for an AE: 7/53
[7]; overall
  grade 3-4 AE: anemia: 3%
  grade 3-4 AE: arthralgia: 2%
  grade 3-4 AE: asthenia: 2%
  grade 3-4 AE: fatigue: 11%
  grade 3-4 AE: seizures: 2%
  mild (grade 2) AE: anorexia: 5.7%
  mild (grade 2) AE: back pain: 5.7%
  mild (grade 2) AE: dyspnea: 7.9%
  mild (grade 2) AE: fatigue: 27.1%
  mild (grade 2) AE: nausea: 8.6%
[7]
  maximum tolerated dose: 240 mg daily
[8]; 95% CI 0.53 to 0.75, P<0.001, ref 4 (S1 Protocol)
  HR for death vs placebo: 0.63
[8]; [15]
  Abnormal liver function testing, Grade 3-4 (%): 0.4%
  Arthralgias / musculoskeletal pain, Grade 3-4 (%): 1%
  Diarrhea, Grade 3-4 (%): 1%
  Fatigue, Grade 3-4 (%): 6%
  Headache, Grade 3-4 (%): 0.8%
  Hot flashes, Grade 3-4 (%): 0%
  Seizure, Grade 3-4 (%): 0.6%
[8]; enzalutamide 160 mg daily (N=800), ref 4 (S1 Protocol)
  median OS: 18.4 months
[8]; enzalutamide 160 mg daily, ref 4 (S1 Protocol)
  rate of grade 3 or higher AEs: 45.3%
[9]
  enzymes responsible for the metabolism: CYP2C8 and CYP3A4
[10]
  increase of composite AUC of enzalutamide plus N-desmethyl enzalutamide by itraconazole: 1.3 fold
[11]
  effect of a high-fat meal on AUC: did not alter
[12]; 95% CI 0.60 to 0.84, P<0.0001, ref 1 (S1 Protocol)
  HR for death vs placebo: 0.706
[12]; [16]
  Abnormal liver function testing, Grade 3-4 (%): 0.2%
  Arthralgias / musculoskeletal pain, Grade 3-4 (%): 1.4%
  Back pain, Grade 3-4 (%): 2.5%
  Constipation, Grade 3-4 (%): 0.5%
  Fatigue, Grade 3-4 (%): 1.8%
  Hypertension, Grade 3-4 (%): 6.8%
  Seizure, Grade 3-4 (%): 0%
[12]; enzalutamide 160 mg daily (N=871), ref 1 (S1 Protocol)
  median OS: 32.4 months

## CC1(C)C(=O)N(c2ccc(C#N)c(C(F)(F)F)c2)C(=S)N1c1ccc(C(N)=O)c(F)c1 [N-desmethyl enzalutamide]
[13]
  % of dose recovered in feces as this species: 1%
[4]; 160 mg daily oral
  plasma mean Cmax at steady state: 12700 ng/mL
  plasma mean predose trough at steady state: 13.0 µg/mL
[14]
  bound to plasma proteins: 95%
[11]
  effect of a high-fat meal on AUC: did not alter
